The record followed here is US9663496B2, “AMPK-activating heterocyclic compounds and methods for using the same” (Rigel Pharmaceuticals, Inc., priority 2010, dated 2017).

The target of this assay is AMPK. Description: AMPK activation, enzyme-linked immunosorbent assay. Conditions: EC50 for AMPK activation, ELISA. Format: biochemical. On the procedure: Compounds were assayed for their ability to activate AMPK using an enzyme-linked immunosorbent assay. Reagents and procedures for measuring AMPK activation are well known and kits for AMPK activation assays are commercially available.
In turn, `O=C(N[C@@H]1CCNC[C@@H]1F)c1ccc(C(=O)N2CCN(Cc3ccc(F)cc3)CC2)cn1` (relative stereo) [Compound 102, 5-(4-(4-fluorobenzyl)piperazine-1-carbonyl)-N-(cis-3-fluoropiperidin-4-yl)picolinamide] gave an EC50 of 5000 to 10000 nM.
For the molecule `O=C(N[C@@H]1CCN(Cc2ccncc2)C[C@@H]1F)c1ccc(C(=O)N2CCN(Cc3ccc(F)cc3)CC2)cn1` (relative stereo) [Compound 104, N-(cis-3-fluoro-1-(pyridin-4-ylmethyl)piperidin-4-yl)-5-(4-(4-fluorobenzyl)piperazine-1-carbonyl)picolinamide], the EC50 is less than 500 nM.
`O=C(N[C@@H]1CCN(Cc2ccc(Cl)cc2)C[C@@H]1F)c1ccc(C(=O)N2CCN(Cc3ccc(F)cc3)CC2)cn1` (relative stereo) [Compound 127, N-(cis-1-(4-chlorobenzyl)-3-fluoropiperidin-4-yl)-5-(4-(4-fluorobenzyl)piperazine-1-carbonyl)picolinamide] displayed an EC50 of less than 500 nM.
For the molecule `CS(=O)(=O)c1ccc(C(=O)C2CCN(C(=O)c3ccc(C(=O)N[C@@H]4CCN(Cc5ccc(C#N)cc5)C[C@H]4F)nc3)CC2)cc1` (relative stereo) [Compound 252, N-((trans)-1-(4-cyanobenzyl)-3-fluoropiperidin-4-yl)-5-(4-(4-(methylsulfonyl)benzoyl)piperidine-1-carbonyl)picolinamide], the EC50 fell in the range of 500 to 1000 nM.
As for `CS(=O)(=O)c1ccc(C(=O)C2CCN(C(=O)c3ccc(C(=O)N[C@@H]4CCN(Cc5ccc(OC(F)(F)F)cc5)C[C@H]4F)nc3)CC2)cc1` (relative stereo) [Compound 253, N-((trans)-3-fluoro-1-(4-(trifluoromethoxy)benzyl)piperidin-4-yl)-5-(4-(4-(methylsulfonyl)benzoyl)piperidine-1-carbonyl)picolinamide], the EC50 lay within 500 to 1000 nM.
The result for `CS(=O)(=O)c1ccc(OC2CCN(C(=O)c3ccc(C(=O)N[C@@H]4CCN(Cc5ccc(C#N)cc5)C[C@H]4F)nc3)CC2)cc1` (relative stereo) [Compound 254, N-((trans)-1-(4-cyanobenzyl)-3-fluoropiperidin-4-yl)-5-(4-(4-(methylsulfonyl)phenoxy)piperidine-1-carbonyl)picolinamide] reads less than 500 nM.
Then `CS(=O)(=O)c1ccc(OC2CCN(C(=O)c3ccc(C(=O)N[C@@H]4CCN(Cc5ccc(OC(F)(F)F)cc5)C[C@H]4F)nc3)CC2)cc1` (relative stereo) [Compound 255, N-((trans)-3-fluoro-1-(4-(trifluoromethoxy)benzyl)piperidin-4-yl)-5-(4-(4-(methylsulfonyl)phenoxy)piperidine-1-carbonyl)picolinamide], with less than 500 nM; and `N#Cc1ccc(CN2CCC(NC(=O)c3ccc(C(=O)N4CC[C@H](Oc5ccc(C#N)cc5)[C@@H](F)C4)cn3)CC2)cc1` (relative stereo) [Compound 279, N-(1-(4-cyanobenzyl)piperidin-4-yl)-5-((trans)-4-(4-cyanophenoxy)-3-fluoropiperidine-1-carbonyl)picolinamide], with less than 500 nM.
Then `COc1ccc(C(=O)C2CCN(C(=O)c3ccc(C(=O)N[C@@H]4CCN(Cc5ccc(C#N)cc5)C[C@H]4F)cn3)CC2)cc1` (relative stereo) [Compound 349, N-((trans)-1-(4-cyanobenzyl)-3-fluoropiperidin-4-yl)-6-(4-(4-methoxybenzoyl)piperidine-1-carbonyl)nicotinamide], with less than 500 nM; and `COc1ccc(C(=O)C2CCN(C(=O)c3ccc(C(=O)N[C@@H]4CCN(Cc5ccc(OC(F)(F)F)cc5)C[C@H]4F)cn3)CC2)cc1` (relative stereo) [Compound 350, N-((trans)-3-fluoro-1-(4-(trifluoromethoxy)benzyl)piperidin-4-yl)-6-(4-(4-methoxybenzoyl)piperidine-1-carbonyl)nicotinamide], with less than 500 nM.
`COc1ccc(C(=O)C2CCN(C(=O)c3ccc(C(=O)N[C@@H]4CCN(Cc5ccc(OC(C)C)cc5)C[C@H]4F)cn3)CC2)cc1` (relative stereo) [Compound 353, N-((trans)-3-fluoro-1-(4-isopropoxybenzyl)piperidin-4-yl)-6-(4-(4-methoxybenzoyl)piperidine-1-carbonyl)nicotinamide] displayed an EC50 of less than 500 nM.
The result for `COc1ccc(C(=O)C2CCN(C(=O)c3ccc(C(=O)N[C@@H]4CCN(Cc5ccc(C#N)c(F)c5)C[C@H]4F)cn3)CC2)cc1` (relative stereo) [Compound 354, N-((trans)-1-(4-cyano-3-fluorobenzyl)-3-fluoropiperidin-4-yl)-6-(4-(4-methoxybenzoyl)piperidine-1-carbonyl)nicotinamide] reads less than 500 nM.
Then `COc1ccc(C(=O)C2CCN(C(=O)c3ccc(C(=O)N[C@H]4CCN(Cc5ccc(C#N)cc5)C[C@H]4F)cn3)CC2)cc1` (relative stereo) [Compound 454, N-((cis)-1-(4-cyanobenzyl)-3-fluoropiperidin-4-yl)-6-(4-(4-methoxybenzoyl)piperidine-1-carbonyl)nicotinamide], with less than 500 nM.
In turn, `N#Cc1ccc(CN2CCC(NC(=O)c3ccc(C(=O)N4CCC(Oc5ccc(S(=O)(=O)C(F)(F)F)cc5)CC4)nc3)C(F)C2)cc1` (stereo in doubt) [Compound 451, N-((3S,4R)-1-(4-cyanobenzyl)-3-fluoropiperidin-4-yl)-6-(4-(4-(trifluoromethylsulfonyl)phenoxy)piperidine-1-carbonyl)nicotinamide] showed an EC50 of less than 500 nM.
The result for `O=C(c1ccc(C(=O)N2CCN(Cc3ccc(F)cc3)CC2)nc1)N1CCN(Cc2ccc(F)cc2)CC1` [Compound 3, pyridine-2,5-diylbis((4-(4-fluorobenzyl)piperazin-1-yl)methanone)] reads 500 to 1000 nM; that for `N#Cc1ccc(C(=O)N2CCC(NC(=O)c3ccc(C(=O)N4CCN(Cc5ccc(F)cc5)CC4)cn3)CC2)cc1` [Compound 4, N-(1-(4-cyanobenzoyl)piperidin-4-yl)-5-(4-(4-fluorobenzyl)piperazine-1-carbonyl)picolinamide], 500 to 1000 nM.
Then `N#Cc1ccc(CN2CCC(NC(=O)c3ccc(C(=O)Nc4cccc(Cc5ccccc5)c4)cn3)CC2)cc1` [Compound 5, N^2-(1-(4-cyanobenzyl)piperidin-4-yl)-N^5-(3-benzylphenyl)pyridine-2,5-dicarboxamide], with 500 to 1000 nM.
Molecule `O=C(NC1CCN(C(=O)C2CCCCC2)CC1)c1ccc(C(=O)N2CCN(Cc3ccc(F)cc3)CC2)cn1` [Compound 7, N-(1-(cyclohexanecarbonyl)piperidin-4-yl)-5-(4-(4-fluorobenzyl)piperazine-1-carbonyl)picolinamide] returned an EC50 of less than 500 nM.
Then `O=C(NC1CCN(C(=O)c2ccccc2)CC1)c1ccc(C(=O)N2CCN(Cc3ccc(F)cc3)CC2)cn1` [Compound 8, N-(1-(benzoyl)piperidin-4-yl)-5-(4-(4-fluorobenzyl)piperazine-1-carbonyl)picolinamide], with less than 500 nM; and `N#Cc1ccc(Cn2ccc(NC(=O)c3ccc(C(=O)N4CCN(Cc5ccc(F)cc5)CC4)cn3)n2)cc1` [Compound 9, N-(1-(4-cyanobenzyl)-1H-pyrazol-3-yl)-5-(4-(4-fluorobenzyl)piperazine-1-carbonyl)picolinamide], with less than 500 nM; and `O=C(Nc1ccc(-c2ccccc2)cc1)c1ccc(C(=O)N2CCN(Cc3ccc(F)cc3)CC2)cn1` [Compound 11], with less than 500 nM.
The result for `O=C(Nc1cccc(-c2ccccc2)c1)c1ccc(C(=O)N2CCN(Cc3ccc(F)cc3)CC2)cn1` [Compound 12] reads 5000 to 10000 nM; that for `O=C(NC1CCN(CC2CCCCC2)CC1)c1ccc(C(=O)N2CCN(Cc3ccc(F)cc3)CC2)cn1` [Compound 13, N-(1-(cyclohexylmethyl)piperidin-4-yl)-5-(4-(4-fluorobenzyl)piperazine-1-carbonyl)picolinamide], 1000 to 5000 nM; that for `N#Cc1ccc(CN2CCC3(CCN(C(=O)c4ccc(C(=O)N5CCN(Cc6ccc(F)cc6)CC5)cn4)CC3)C2)cc1` [Compound 15, 4-((8-(5-(4-(4-fluorobenzyl)piperazine-1-carbonyl)picolinoyl)-2,8-diazaspiro[4.5]decan-2-yl)methyl)benzonitrile], 1000 to 5000 nM.
Turning to `O=C(Nc1ccc(Br)cc1)c1ccc(C(=O)N2CCN(Cc3ccc(F)cc3)CC2)cn1` [Compound 28, N-(4-bromophenyl)-5-(4-(4-fluorobenzyl)piperazine-1-carbonyl)picolinamide], the half-maximal effective concentration (EC50) was in the range of 500 to 1000 nM.
Then `N#Cc1ccc(CN2CCC3(CC2)CCN(c2ccc(C(=O)N4CCN(Cc5ccc(F)cc5)CC4)cn2)C3)cc1` [Compound 31, 4-((2-(5-(4-(4-fluorobenzyl)piperazine-1-carbonyl)pyridin-2-yl)-2,8-diazaspiro[4.5]decan-8-yl)methyl)benzonitrile], with less than 500 nM.
For `O=C(c1ccc(Nc2ccc(Oc3ccccc3)cc2)nc1)N1CCN(Cc2ccc(F)cc2)CC1` [Compound 34, (4-(4-fluorobenzyl)piperazin-1-yl)(6-(4-phenoxyphenylamino)pyridin-3-yl)methanone], the EC50 lay within 1000 to 5000 nM.
The result for `O=C(c1ccc(Nc2ccc(-c3ccccc3)cc2)nc1)N1CCN(Cc2ccc(F)cc2)CC1` [Compound 37, (6-(4-phenylphenylamino)pyridin-3-yl)(4-(4-fluorobenzyl)piperazin-1-yl)methanone] reads 5000 to 10000 nM.
On to `O=C(NC1CCN(Cc2ccc(Cl)cc2)CC1)c1ccc(C(=O)N2CCN(Cc3ccc(F)cc3)CC2)cn1` [Compound 52, N-(1-(4-chlorobenzyl)piperidin-4-yl)-5-(4-(4-fluorobenzyl)piperazine-1-carbonyl)picolinamide], for which the EC50 is less than 500 nM.
Then `COc1ccc(Oc2ccc(NC(=O)c3ccc(C(=O)N4CCN(Cc5ccc(F)cc5)CC4)cn3)cc2)cc1` [Compound 54, 5-(4-(4-fluorobenzyl)piperazine-1-carbonyl)-N-(4-(4-methoxyphenoxy)phenyl)picolinamide], with less than 500 nM; and `O=C(NC1CCN(Cc2ccccc2)CC1)c1ccc(C(=O)N2CCN(Cc3ccccc3)CC2)cn1` [Compound 72, 5-(4-benzylpiperazine-1-carbonyl)-N-(1-benzylpiperidin-4-yl)picolinamide], with less than 500 nM.
